Molecular target: 5-hydroxytryptamine receptor 3A (Rattus norvegicus) (UniProt P35563)
Test: The compound was tested for binding affinity against 5-hydroxytryptamine 3 receptor

Sequence of 5-hydroxytryptamine receptor 3A (Rattus norvegicus) (P35563 whole entry, looked up): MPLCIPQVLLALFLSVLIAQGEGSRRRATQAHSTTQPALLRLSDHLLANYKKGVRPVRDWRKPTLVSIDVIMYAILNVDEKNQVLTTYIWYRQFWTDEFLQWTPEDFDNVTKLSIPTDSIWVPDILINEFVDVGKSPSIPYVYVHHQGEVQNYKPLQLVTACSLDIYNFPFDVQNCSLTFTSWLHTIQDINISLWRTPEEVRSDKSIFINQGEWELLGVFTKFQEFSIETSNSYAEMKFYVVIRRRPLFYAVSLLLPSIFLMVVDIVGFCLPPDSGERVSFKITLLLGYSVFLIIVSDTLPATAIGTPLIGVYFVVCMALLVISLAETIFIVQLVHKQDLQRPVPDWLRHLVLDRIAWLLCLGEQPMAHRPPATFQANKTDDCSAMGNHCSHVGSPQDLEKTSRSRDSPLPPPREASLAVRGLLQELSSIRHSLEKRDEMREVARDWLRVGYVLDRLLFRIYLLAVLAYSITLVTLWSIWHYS

COc1ccccc1N1CCC(CNCC2COc3ccc(Cl)cc3O2)CC1 (stereo unspecified)
Ki: > 1000 nM
